These results are taken from PMC6891749, “[b]-Annulated Halogen-Substituted Indoles as Potential DYRK1A Inhibitors” (Molecules, 2019).

The target of series [1] is RnDYRK1A-kd (Rattus norvegicus, UniProt Q63470). In words: ADP-Glo luminescent kinase assay. The note with it: for DYRK1A inhibitory activity (in words): ADP-Glo assay. It is filed as biochemical, Rn. How it is done: (§1) Protein kinase assays with the derivatives 11–15 were carried out by radiometric methods using protein kinases, reagents, and conditions as described before. The DYRK1A inhibitory activities of the Mannich bases 16, 27 and 28 were assayed in 384-well plates using the ADP-GloTM assay kit (Promega, Madison, WI) according to the recommendations of the manufacturer. This assay is a luminescent ADP detection assay that provides a homogeneous and high-throughput screening method to measure kinase activity by quantifying the amount of ADP produced during a kinase reaction. Briefly, the reactions were carried out in a final volume of 6 µL for 30 min at 30 °C in appropriate kinase buffer, with either protein or peptide as substrate in the presence of 10 µM ATP. After that, 6 µL of ADP-GloTM Kinase Reagent was added to stop the kinase reaction. After an incubation time of 50 min at room temperature (rt), 12 µL of Kinase Detection Reagent was added for one hour at rt. The transmitted signal was measured using the Envision (PerkinElmer, Waltham, MA) microplate luminometer and expressed in Relative Light Units (RLU). In order to determine the half maximal inhibitory concentration (IC50), the assays were performed in duplicate in the absence or presence of increasing doses of the tested compounds. Kinase activities are expressed in % of maximal activity, i.e. measured in the absence of inhibitor. The peptide substrate was obtained from Proteogenix (Schiltigheim, France). RnDYRK1A-kd was assayed in buffer A with 0.033 μg/µl of the peptide […] as substrate (buffer A: 10 mM MgCl2, 1 mM EGTA, 1 mM DTT, 25 mM Tris-HCl pH 7.5, 50 µg/mL heparin). All data points for construction of dose response curves were recorded in triplicate. Typically, the standard deviation of single data points was below 10%.
(ADP-Glo first removes unused ATP, then detects ADP through luciferase.)

The nature of series [2]: Kinetic solubility, laser nephelometry. In kind it is physicochemical. The note with it: for solubility kinetic: aqueous phosphate buffer, aqueous buffer, kinetic from dmso stock, phosphate buffer pH 7.4, nephelometry, mean value and range, read-out: Sexp., kin., pH 7.4 (kinetic solubility). The method, then: The kinetic solubility was determined using laser nephelometry. A stock solution based on the results of the thermodynamic solubility measurement of the test compounds in DMSO was prepared. The stock solution was diluted with DMSO to get different concentrations. The DMSO dilutions (5 µL) were placed on a 96-well plate filled with aqueous phosphate buffer pH 7.4 (195 µL, same buffer as for thermodynamic solubility). Two dilution series of the stock solution were measured. A blank was determined for every measurement. The well plate was scanned by a nephelometer (Nephelostar Plus, BMG Labtech, Ortenberg, Germany). Precipitated particles scatter the laser light which is detected by the nephelometer. The intensity of the scattered light is assumed to be proportional to the particle concentration in the suspension. The different concentrations were plotted versus the intensities measured by the nephelometer. The resulting kick-off curves led directly to the kinetic solubility by determining the intersection of the linear straight line paralleling the x axis and the linear slope.

Series [3] can be described thus: Thermodynamic solubility, shake-flask method with HPLC. It is filed as physicochemical. The note with it: aqueous phosphate buffer, thermodynamic from solid, phosphate buffer pH 7.4, shake-flask, 25 °C, mean value and range, read-out: Sexp., therm., pH 7.4 (thermodynamic solubility). The method, then:
For determination of thermodynamic solubility an aqueous phosphate buffer at pH 7.4 with sodium chloride was used. The buffer was prepared by dissolving Na2HPO4 × 2 H2O (298 mg), KH2PO4 (19 mg) and NaCl (800 mg) in water (100 mL). The pH was adjusted to 7.4 by addition of aq. hydrochloric acid (3 mol/L). The thermodynamic solubility was determined using a shake-flask method with quantification by a buffer-HPLC method. […] The mixtures were shaken at 25 °C and 400 rpm for 24 and 48 h (IKA KS 3000 ic control, IKA-Werke, Staufen, Germany). For each time (24 and 48 h) two independent measurements at two different detection wavelengths (254 and 280 nm) were determined. After 24 h and 48 h the mixtures were inspected for remaining solids. The concentrations in the resulting saturated solutions were quantified by isocratic HPLC with external standard calibration. […] For calibration, a stock solution of the test compounds in DMSO was prepared and diluted with DMSO to suitable concentrations. The AUC at the wavelength 254 nm and 280 nm was used for quantification.

The target in series [4] is CDK5 (Homo sapiens, UniProt Q00535). The experiment in a line: Protein kinase assay, radiometric. The note with it: dose response curves, triplicates. It is filed as biochemical. How it is done:
(§2) The new compounds 11–16 were tested on an array of protein kinases of the CMGC family. First, the kinases were incubated with 10 µM solutions of the test compounds and the residual activities compared to controls were measured. The IC50 values of promising compounds were then determined from concentration-response curves (Table 1).
as §1

Series [5] deals with CDK2 (Homo sapiens, UniProt P24941). In words: Protein kinase assay, radiometric. It is filed as biochemical. The note with it: dose response curves, triplicates. How it is done:
as §2, §1

The target in series [6] is CDK1. In words: Protein kinase assay, radiometric. In kind it is biochemical. The note with it: dose response curves, triplicates. The method, then: as §2, §1
The target in series [7] is T1, DYRK1A (Homo sapiens, UniProt Q13627). The experiment in a line: Protein kinase assay, radiometric. It is filed as biochemical. The note with it: dose response curves, triplicates. The method, then:
as §2, §1

Series [8] has as its target CK1. The experiment in a line: Protein kinase assay, radiometric. The note with it: dose response curves, triplicates. In kind it is biochemical. How it is done:
as §2, §1

For series [9], the target named is GSK-3. In words: Protein kinase assay, radiometric. In kind it is biochemical. The note with it: dose response curves, triplicates. How it is done: as §2, §1
The target in series [10] is CLK1 (Mus musculus, UniProt P22518). In words: Protein kinase assay, radiometric. It is filed as biochemical. The note with it: dose response curves, triplicates. How it is done: as §2, §1
CLK1, sequence (P22518 whole entry): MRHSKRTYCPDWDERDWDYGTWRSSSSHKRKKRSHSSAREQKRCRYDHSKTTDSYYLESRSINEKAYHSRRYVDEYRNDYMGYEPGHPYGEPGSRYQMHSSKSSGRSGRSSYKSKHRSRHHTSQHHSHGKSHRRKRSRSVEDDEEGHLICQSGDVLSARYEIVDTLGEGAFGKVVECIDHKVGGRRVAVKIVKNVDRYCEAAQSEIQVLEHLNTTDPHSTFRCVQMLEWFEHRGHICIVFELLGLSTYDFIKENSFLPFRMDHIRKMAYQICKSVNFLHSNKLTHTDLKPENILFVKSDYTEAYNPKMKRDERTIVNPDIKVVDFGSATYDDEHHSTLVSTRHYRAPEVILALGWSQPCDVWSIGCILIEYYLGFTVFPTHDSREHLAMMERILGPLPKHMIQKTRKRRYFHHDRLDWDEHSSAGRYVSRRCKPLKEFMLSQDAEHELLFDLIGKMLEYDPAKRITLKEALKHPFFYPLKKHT
The target in series [11] is CDK9 (Homo sapiens, UniProt P50750). In words: Protein kinase assay, radiometric. In kind it is biochemical. The note with it: dose response curves, triplicates. How it is done: as §2, §1
CDK9, sequence (P50750 whole entry, species assumed): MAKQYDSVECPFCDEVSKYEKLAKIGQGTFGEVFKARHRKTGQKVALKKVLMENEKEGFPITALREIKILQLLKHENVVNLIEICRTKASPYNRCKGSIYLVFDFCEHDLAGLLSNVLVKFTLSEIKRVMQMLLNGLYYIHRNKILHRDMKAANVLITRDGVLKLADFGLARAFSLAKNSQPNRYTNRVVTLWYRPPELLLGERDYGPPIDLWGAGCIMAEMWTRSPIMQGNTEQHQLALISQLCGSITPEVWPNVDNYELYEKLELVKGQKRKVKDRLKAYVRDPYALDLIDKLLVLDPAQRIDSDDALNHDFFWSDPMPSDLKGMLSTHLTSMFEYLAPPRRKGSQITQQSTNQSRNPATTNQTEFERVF
CDK9, sequence (O60563 whole entry partner, species assumed): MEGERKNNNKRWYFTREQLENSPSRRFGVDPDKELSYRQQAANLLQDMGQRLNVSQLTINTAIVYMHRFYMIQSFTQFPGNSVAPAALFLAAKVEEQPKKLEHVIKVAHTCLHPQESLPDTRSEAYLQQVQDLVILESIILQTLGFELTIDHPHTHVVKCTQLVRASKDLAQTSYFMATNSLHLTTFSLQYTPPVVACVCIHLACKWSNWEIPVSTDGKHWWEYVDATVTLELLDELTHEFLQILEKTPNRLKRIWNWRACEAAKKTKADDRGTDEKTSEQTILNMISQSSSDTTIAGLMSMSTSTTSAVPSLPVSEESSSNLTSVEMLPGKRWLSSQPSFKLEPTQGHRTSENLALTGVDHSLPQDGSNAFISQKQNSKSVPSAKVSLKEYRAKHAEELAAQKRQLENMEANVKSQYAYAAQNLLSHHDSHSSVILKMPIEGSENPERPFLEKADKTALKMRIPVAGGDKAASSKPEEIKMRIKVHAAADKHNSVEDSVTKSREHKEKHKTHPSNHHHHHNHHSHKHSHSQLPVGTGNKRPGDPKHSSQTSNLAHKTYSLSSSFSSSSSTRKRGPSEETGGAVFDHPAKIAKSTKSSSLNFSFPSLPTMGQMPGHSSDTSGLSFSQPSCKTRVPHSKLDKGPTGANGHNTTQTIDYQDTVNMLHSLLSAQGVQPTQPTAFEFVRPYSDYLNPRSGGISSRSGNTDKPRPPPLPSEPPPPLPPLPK
In series [12] the test system is DYRK1B. Also noted: method as in PMID 25264830, PMID 27766861. The note with it: cited from earlier work.
The target of series [13] is T1, DYRK1A. Set-up: method as in PMID 25264830, PMID 27766861. The note with it: cited from earlier work.
For series [14], the system named is CDK1. Set-up: method as in Falke et al. [34]. The note with it: radiometric; ref Falke et al. [34]; cited from earlier work.
For series [15], the system named is MAO-A. Also noted: method as in PMID 15010457, PMID 20981014. The note with it: cited from earlier work.

SMILES strings stand for the structures. pIC50: −log10 of the molar value. ≈ marks a conversion by molar mass, not a printed value. Structures can show the parent of a compound that is named as a salt. Where two headings read alike, the source gives them in different places.

CDK5, sequence (Q00535 whole entry, species assumed): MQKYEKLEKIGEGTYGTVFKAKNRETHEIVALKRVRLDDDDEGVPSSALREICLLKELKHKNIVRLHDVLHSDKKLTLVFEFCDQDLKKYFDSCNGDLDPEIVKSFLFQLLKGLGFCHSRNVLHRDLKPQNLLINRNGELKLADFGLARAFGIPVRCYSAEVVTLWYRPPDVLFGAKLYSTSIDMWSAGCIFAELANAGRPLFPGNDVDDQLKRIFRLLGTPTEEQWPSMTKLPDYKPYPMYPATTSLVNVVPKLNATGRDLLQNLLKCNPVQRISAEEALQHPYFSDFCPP
CDK5, sequence (Q15078 99-307 partner limits assumed, species assumed): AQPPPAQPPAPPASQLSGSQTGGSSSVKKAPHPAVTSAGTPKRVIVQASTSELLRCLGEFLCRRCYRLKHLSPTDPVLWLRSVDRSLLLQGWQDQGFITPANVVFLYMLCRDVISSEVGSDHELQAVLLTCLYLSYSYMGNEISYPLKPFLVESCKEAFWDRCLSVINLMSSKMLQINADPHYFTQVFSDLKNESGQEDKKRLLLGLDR

Regarding `CN(C)CC1CCc2[nH]c3c(Cl)cccc3c2C1=O` (racemic) [compound 28, (R,S)-8-Chloro-3-[(dimethylamino)methyl]-1,2,3,9-tetrahydro-4H-carbazol-4-one hydrochloride], the “DYRK1A inhibitory activity (in words)” value in [1] is “inactive”.

For orientation: kinetic solubility means solubility judged after dilution from a stock solution rather than from solid. In general, thermodynamic solubility refers to the concentration in solution at equilibrium with solid. A word on the pIC50: it is the negative decadic logarithm of the IC50, by convention in mol/L. `O=c1ccccc2[nH]c3c(Cl)cccc3c12` [compound 11, 4-Chlorocyclohepta[b]indol-10(5H)-one]: the kinetic solubility in series [2] was found to be 26.1 µM (≈ 5.99 µg/mL). In series [2] (phosphate buffer pH 7.4), the “Improvement of kinetic solubility compared to 10” value is given as “fivefold improved solubility”. In [3], the thermodynamic solubility is under 5 µM. Also, the pIC50 in [4] is under 5.00; in series [5], under 5.00; in series [6] it was under 5.00; in series [7], 6.70; in series [8] it was under 5.00; in series [9], under 5.00. In addition, the negative logarithm of the IC50 (pIC50) in series [10] was 6.77; in [11] it was under 5.00.

Turning to `COC(=N)c1nc2ccc3ncnc(Nc4ccc(Cl)cc4Cl)c3c2s1` [compound 7], in series [12], the “Activity on DYRK1B” value was “subnanomolar”. For the same molecule, the “Activity on DYRK1A” value in [13] is “subnanomolar”.

In the case of `O=C1NCCc2[nH]c3c(Cl)cccc3c21` [compound 14, 6-Chloro-2,3,4,5-tetrahydro-1H-pyrido[4,3-b]indol-1-one], the pIC50 was 6.09 in [4]; 5.77 in [5]; 5.92 in series [6]; 6.72 in series [7]; 5.44 in series [8]; 5.57 in series [9]. Besides, the pIC50 was 6.92 in series [10] and 6.06 in series [11].

With `O=C1c2c([nH]c3c(Cl)cccc23)CCC1CN1CCOCC1` (racemic) [compound 27, (R,S)-8-Chloro-3-(morpholinomethyl)-1,2,3,9-tetrahydro-4H-carbazol-4-one hydrochloride], the “DYRK1A inhibitory activity (in words)” value in series [1] was “inactive”.

Turning to `O=C1CCCc2[nH]c3c(Cl)cccc3c21` [compound 13, 8-Chloro-1,2,3,9-tetrahydro-4H-carbazol-4-one], the pIC50 in [4] is 5.09; in [7], 5.80; in [8], under 5.00; in series [9], 5.36; in [10], 6.52.

On to `O=C(O)c1nc2ccccc2c2[nH]c3c(I)cccc3c12` [compound 10, reference compound], for which, in [2], the solubility (kinetic) was found to be 5.28 µM (≈ 2.05 µg/mL). Also, in series [3], the thermodynamic solubility is under 5 µM. The negative logarithm of the IC50 (pIC50) in series [14] was under 5.00.

As for `O=C1NCCCc2[nH]c3c(Cl)cccc3c21` [compound 15, 7-Chloro-3,4,5,6-tetrahydroazepino[4,3-b]indol-1(2H)-one], the pIC50 was 5.60 in series [4]; 5.60 in series [5]; 5.15 in series [6]; 5.66 in series [7]; 5.38 in series [8]; under 5.00 in [9]. Also, the pIC50 in series [10] is 6.49; in [11], 5.66.

Consider `O=C1c2c([nH]c3c(Cl)cccc23)CCC1CN1CCCCC1` (racemic) [compound 16, (R,S)-8-Chloro-3-(piperidin-1-ylmethyl)-1,2,3,9-tetrahydro-4H-carbazol-4-one hydrochloride], for which the kinetic solubility in series [2] worked out at 2310 µM. Also, the “DYRK1A inhibitory activity (in words)” value in series [1] is “complete loss of DYRK1A inhibitory activity”. The negative-log IC50 (pIC50) in [1] (ADP-Glo assay kit, 10 µM ATP, read-out: IC50 DYRK1A) is under 5.00. Besides, the solubility (thermodynamic) in [3] turned out to be 13600 µM.

For `CCN1/C(=C/C(C)=O)Sc2ccc(O)cc21` [compound 4], the MAO-A inhibition result in [15] is “no MAO-A inhibition”.

In the case of `O=C1CCc2[nH]c3c(Cl)cccc3c21` [compound 12, 5-Chloro-3,4-dihydrocyclopenta[b]indol-1(2H)-one], the negative logarithm of the IC50 (pIC50) in series [4] is under 5.00; in series [5], under 5.00; in [6], under 5.00; in series [7], 6.15; in [8], under 5.00; in series [9], under 5.00. The pIC50 is 6.05 in series [10] and under 5.00 in series [11].
